Experimental data as given in patent publication US3980794A, “Method for promoting growth of poultry with 3-(5-nitro-2-imidazolyl)pyrazoles” (Eli Lilly and Company, priority 1975, dated 1976).
Converted amounts (≈) assume the structure as drawn. Read-outs that look alike come from different tables or passages of the source.

Tests used:
[1] = test system: Fusobacterium symbiosum 1470; assay: Susceptibility of anaerobic bacteria, agar dilution; format: cell-based; conditions: read-out: 24 Hr. Minimum Inhibitory Concentration
[2] = test system: Clostridium septicum bovine; assay: as above; format: cell-based; conditions: 24 h, read-out: 24 Hr. Minimum Inhibitory Concentration
[3] = test system: Clostridium septicum 1128; assay: as above; format: cell-based; conditions: 24 h, read-out: 24 Hr. Minimum Inhibitory Concentration
[4] = test system: Pasteurella multocida, bovine strain; assay: Oral activity against Pasteurella multocida, bovine strain, in mice (Experiment 3); format: in vivo, White Swiss mice; conditions: 100 g. per ton of feed; LD50 of control minus LD50 of treated group (log10 dilutions)
Method: White Swiss female mice weighing 15-20 g. each were used in the test. Seven groups of ten mice each were treated at a level of 100 g. of test compound per ton of feed. The animals received the medication in the feed for 2 days prior to challenge and for 7 days post challenge. Similar groups of mice on a ration without the antimicrobial agent were used as controls. Both the treated mice and the control groups of mice were challenged with log10 dilutions ranging from 10^-^2 through 10^-^8 of a 16 to 20-hour culture of Pasteurella multocida, bovine strain, at 0.1 ml. per mouse, administered subcutaneously. […] By subtracting the LD50 of each of the treated groups from that of the control group of mice, there was obtained a figure called the protective index.
In the chart, column 1 lists the test compound, identified in the same manner as set forth in Experiment 1; and column 2 lists the protective index.

[5] = test system: Pasteurella multocida; assay: Efficacy against Pasteurella multocida infections in mice when administered by injection (Experiment 1); format: in vivo, Swiss mice; conditions: ip; for responders at 2.5 mg/kg: 2.5 mg./kg. i.p.; for responders at 5 mg/kg: 5.0 mg./kg. i.p.; for responders at 7.5 mg/kg: 7.5 mg./kg. i.p.
Method: The efficacy of the novel compounds against Pasteurella multocida infections in mice when administered by injection was studied.
Female Swiss mice weighing from 15 to about 20 g. were used. The test compound, 5.0 mg., was weighed out and dissolved in 0.5 ml. of dimethyl sulfoxide, and this solution was added to 9.5 ml. of sodium carboxymethylcellulose suspension. Groups of five mice each were injected intraperitoneally with 0.1 ml. each of the above-prepared test composition. This preparation gave a test rate of 2.5 mg. per kilo of body weight of mouse. The compounds were tested at 2.5, 5.0, or 7.5 mg. per kilo of body weight of mouse, and the test preparations for rates of 5.0 and 7.5 mg./kg. were prepared in a similar manner. Immediately after receiving the test compound, the mice were challenged using log10 dilutions of 10^-^4, 10^-^5, 10^-^6, and 10^-^7 of a 16 to 20-hour tryptose broth culture of Pasteurella multocida at 0.1 ml. per mouse subcutaneously. Similar groups of nontreated control mice were also challenged, the challenge being administered subcutaneously. The groups of mice were observed daily for mortality and the total mortality in treated groups compared with that which occurred in the nonmedicated control groups. Each test compound is identified by the number of the example describing its preparation.
In the chart, column 1 lists the test compound; column 2, the dosage of test compound in mg./kg. of mouse body weight; column 3, the dilution of the challenge organism; and column 4, the ratio of the number of mice surviving the test at each dosage and challenge dilution to the number of mice tested at each dosage and challenge dilution, called the survival ratio.

[6] = test system: Bacteroides fragilis sp. fragilis 1877; assay: Susceptibility of anaerobic bacteria, agar dilution; format: cell-based; conditions: 24 h, read-out: 24 Hr. Minimum Inhibitory Concentration
[7] = challenge dilution 10^-^4, read-out: Survival Ratio (converted)
[8] = challenge dilution 10^-^5, read-out: Survival Ratio (converted)
[9] = challenge dilution 10^-^6, read-out: Survival Ratio (converted)
[10] = challenge dilution 10^-^7, read-out: Survival Ratio (converted)
[11] = challenge dilution 10^-^4, read-out: Survival Ratio
[12] = challenge dilution 10^-^5, read-out: Survival Ratio
[13] = challenge dilution 10^-^6, read-out: Survival Ratio
[14] = 24 h, Fusobacterium symbiosum 1470
[15] = Bacteroides fragilis sp. fragilis 1877

COC=Nc1c(C#N)c(-c2ncc([N+](=O)[O-])n2C)nn1C [Compound 6, Methyl N-[4-cyano-1-methyl-3-(1-methyl-5-nitro-2-imidazolyl)pyrazol-5-yl]formimidate]
MIC ([1]; Fusobacterium, 1470, 24 h): < 0.125 µg/mL | MIC [2]: < 0.125 µg/mL | MIC [3]: < 0.125 µg/mL | Protective Index [4]: 4.3 | responders at 2.5 mg/kg [5, 7]: 90% | responders at 2.5 mg/kg [5, 8]: 50% | responders at 2.5 mg/kg [5, 9]: 90% | responders at 2.5 mg/kg [5, 10]: 100% | responders at 5 mg/kg [5, 7]: 80% | responders at 5 mg/kg [5, 8]: 90% | responders at 5 mg/kg [5, 9]: 100% | responders at 7.5 mg/kg [5, 11]: 90% | responders at 7.5 mg/kg [5, 12]: 90% | responders at 7.5 mg/kg [5, 13]: 100% | MIC ([6]; Bacteroides fragilis): < 0.125 µg/mL

CCCCOC=Nc1c(C#N)c(-c2ncc([N+](=O)[O-])n2C)nn1C [Compound 7, Butyl N-[4-Cyano-1-methyl-3-(1-methyl-5-nitro-2-imidazolyl)-pyrazol-5-yl]formimidate]
MIC ([1]; Fusobacterium, 1470, 24 h): < 0.125 µg/mL | MIC [2]: < 0.125 µg/mL | MIC [3]: < 0.125 µg/mL | Protective Index [4]: 3.4 | responders at 2.5 mg/kg [5, 7]: 15% | responders at 2.5 mg/kg [5, 8]: 35% | responders at 2.5 mg/kg [5, 9]: 70% | responders at 5 mg/kg [5, 7]: 30% | responders at 5 mg/kg [5, 8]: 45% | responders at 5 mg/kg [5, 9]: 75% | responders at 7.5 mg/kg [5, 11]: 50% | responders at 7.5 mg/kg [5, 12]: 70% | responders at 7.5 mg/kg [5, 13]: 100% | MIC ([6]; Bacteroides fragilis): < 0.125 µg/mL

CC(=O)Nc1c(C(=O)O)c(-c2ncc([N+](=O)[O-])n2C)nn1C [Compound 12, 5-acetamido-1-methyl-3-(1-methyl-5-nitro-2-imidazolyl)pyrazole-4-carboxylic acid]
MIC [1, 14]: < 0.125 µg/mL | MIC [2]: 8 µg/mL (≈ 26 µM) | MIC [3]: 4 µg/mL (≈ 13 µM) | responders at 5 mg/kg [5, 7]: 0% | responders at 5 mg/kg [5, 8]: 30% | responders at 5 mg/kg [5, 9]: 70% | MIC [6, 15]: 4 µg/mL (≈ 13 µM)

CCCCC(CC)COC=Nc1c(C#N)c(-c2ncc([N+](=O)[O-])n2C)nn1C (stereo not shown) [Compound 13D, 2-Ethylhexyl N-[4-cyano-1-methyl-3-(1-methyl-5-nitro-2-imidazolyl)pyrazol-5-yl]formimidate]
MIC [1, 14]: 1 µg/mL (≈ 2.58 µM) | MIC [2]: 4 µg/mL (≈ 10.3 µM) | MIC [3]: 2 µg/mL (≈ 5.16 µM) | responders at 2.5 mg/kg [5, 7]: 30% | responders at 2.5 mg/kg [5, 8]: 70% | responders at 2.5 mg/kg [5, 9]: 90% | responders at 5 mg/kg [5, 7]: 90% | responders at 5 mg/kg [5, 8]: 100% | responders at 5 mg/kg [5, 9]: 100% | responders at 7.5 mg/kg [5, 11]: 100% | responders at 7.5 mg/kg [5, 12]: 100% | responders at 7.5 mg/kg [5, 13]: 100% | MIC [6, 15]: 2 µg/mL (≈ 5.16 µM)

C=CCOC=Nc1c(C#N)c(-c2ncc([N+](=O)[O-])n2C)nn1C [Compound 13A, Allyl N-[4-cyano-1-methyl-3-(1-methyl-5-nitro-2-imidazolyl)pyrazol-5-yl]formimidate]
MIC [1, 14]: < 0.125 µg/mL | MIC [2]: 0.5 µg/mL (≈ 1.59 µM) | MIC [3]: 0.5 µg/mL (≈ 1.59 µM) | responders at 5 mg/kg [5, 7]: 60% | responders at 5 mg/kg [5, 8]: 80% | responders at 5 mg/kg [5, 9]: 100% | MIC [6, 15]: 0.5 µg/mL (≈ 1.59 µM)

Cn1nc(-c2ncc([N+](=O)[O-])n2C)c(C(N)=O)c1N [Compound 2, 5-Amino-1-methyl-3-(1-methyl-5-nitro-2-imidazolyl)pyrazole-4-carboxamide]
MIC ([1]; Fusobacterium, 1470, 24 h): < 0.125 µg/mL | MIC [2]: < 0.125 µg/mL | MIC [3]: < 0.125 µg/mL | responders at 2.5 mg/kg [5, 7]: 50% | responders at 2.5 mg/kg [5, 8]: 90% | responders at 2.5 mg/kg [5, 9]: 100% | MIC ([6]; Bacteroides fragilis): < 0.125 µg/mL

Cn1nc(-c2ncc([N+](=O)[O-])n2C)c(C#N)c1N [Compound 1, 5-Amino-1-methyl-3-(1-methyl-5-nitro-2-imidazolyl)pyrazole-4-carbonitrile]
MIC ([1]; Fusobacterium, 1470, 24 h): < 0.125 µg/mL | MIC [2]: < 0.125 µg/mL | MIC [3]: < 0.125 µg/mL | Protective Index [4]: > 5.6 | responders at 2.5 mg/kg [5, 7]: 10% | responders at 2.5 mg/kg [5, 8]: 40% | responders at 2.5 mg/kg [5, 9]: 80% | responders at 2.5 mg/kg [5, 10]: 95% | responders at 5 mg/kg [5, 7]: 30% | responders at 5 mg/kg [5, 8]: 90% | responders at 5 mg/kg [5, 9]: 90% | responders at 5 mg/kg [5, 10]: 100% | responders at 7.5 mg/kg [5, 11]: 70% | responders at 7.5 mg/kg [5, 12]: 90% | responders at 7.5 mg/kg [5, 13]: 100% | MIC ([6]; Bacteroides fragilis): < 0.125 µg/mL
